Assay results from patent publication US4761405A, “Antagonists of specific excitatory amino acid neurotransmitter receptors having increased potency” (priority 1987, dated 1988).
“And” between values parts separate entries of the source, which are not always exact repeats. Equal entries are not always repeated. “Also recorded” adds a separate entry of the source. Where two headings read alike, the source gives them in different places.

Experiments:
[1] = test system: QUIS receptors (rat forebrain membranes); test: In vitro receptor binding: inhibition of specific [3H]AMPA binding; settings: for Inhibition of [3H]AMPA binding, in words: 50 μM; for Percent inhibition of specific ligand binding, [3H]AMPA: 50 μM compound, 4 nM ligand, pH 6.9, 100 mM KSCN, 60 min, 4° C., mean ± S.E.M. of three determinations
Experimental: (§1) The potency of the compound described in example IV to inhibit the specific binding of various EAA ligands to rat forebrain membranes was examined using standard in vitro binding techniques. Specifically, example IV was evaluated for potency to inhibit the specific binding of [^3 H]kainic acid ([^3 H]KA),[^3 H]RS-α-amino-3-hydroxy-5-methyl-4-isoxazole propionic acid([^3 H]AMPA) and [^3 H]3-(2-carboxypiperazin-4-yl) propyl-1-phosphonic acid([^3 H]CPP) to KA, QUIS and NMDA receptors, respectively.
(§2) Methods were as follows: rat forebrain membranes were prepared as described by Enna and Synder [Mol. Pharmacology, 13, 422-453 (1977)] and the "buffy coat" preparation was washed three additional times by centrifugation (45,000 g; 10 min; 4° C.) with intermittent resuspensions (20 vol; w/v) in fresh buffer (Tris HCl; 0.05M; pH 7.4; 23° C.). Following the final wash, pellets were stored frozen (-20° C.) until used.
(§3) On the day of assay, pellets were thawed to room temperature, resuspended in buffer (Tris HCl; 0.05 M; various pH; 23° C.) and washed three additional times by centrifugation as described in the preceeding paragraph. For assay, the washed tissue was resuspended in buffer at a concentration of 10 mg/mL. All procedures were performed using triplicate incubations in a final volume of 2 mL which consisted of the tissue suspension (1 mL), ligand, the compound(s) of interest and 1 mL of buffer. In every instance, Glu (10^-3 M) was used to determine nonspecific binding. Assays were terminated by centrifugation (45,000 g; 10 min; 4° C.), the pellet was washed rapidly and superficially with 2×2.5 mL of ice-cold buffer and dissolved in 1 mL of Protosol® (New England Nuclear, Boston, Mass.). Following the addition of 6 mL of Econfluor® (New England Nuclear, Boston, Mass.) radioactivity was determined using conventional liquid scintillation spectrophotometry.
Specific [^3 H]AMPA (S.A.=27.5 Ci/mmol, New England Nuclear, Boston, Mass.) binding was examined according to the method of Murphy et al., [(Soc. Neurosci. Abs., 11, 109, (1985)] using Tris HCl buffer (pH 6.9) supplemented with 100 mM KSCN. Incubations were conducted for 60 min at 4° C. using a final ligand concentration of 4 nM.
(§4) All assays were performed on three separate occassions. Appropriate reference compounds were evaluated in each assay and experiment using parallel incubations. All compounds were examined at a single concentration (50 uM) and activity was expressed as the percent inhibition of specific binding of each ligand.
(§5) Method(s) have been described in the text. Values shown are the means ±S.E.M. of three separate determinations performed using triplicate incubations and are expressed as the percent inhibition of specifically bound ligand. All drugs were tested at a single concentration of 50 μM.

[2] = test system: NMDA receptors (rat forebrain membranes); test: In vitro receptor binding: inhibition of specific [3H]CPP binding; settings: for Inhibition of [3H]CPP binding / interaction with NMDA-type receptors, in words: 50 μM; for Percent inhibition of specific ligand binding, [3H]CPP: 50 μM compound, 8 nM ligand, pH 7.4, 30 min, 23° C., mean ± S.E.M. of three determinations
Experimental: as §1, §2, §3
Specific binding of [^ 3H]CPP (S.A.=27 Ci/mmol, New England Nuclear, Boston, Mass.) was examined using a modification of the method of Murphy et al., [(J. Pharmacol. Exp. therap., (in press)] using Tris HCl buffer (pH 7.4). Incubations were conducted for 30 min at 23° C. using a final ligand concentration of 8 nM.
as §4, §5

[3] = test system: KA receptors (rat forebrain membranes); test: In vitro receptor binding: inhibition of specific [3H]KA binding; settings: for Percent inhibition of specific ligand binding, [3H]KA: 50 μM compound, 2 nM ligand, pH 7.4, 90 min, 2° C., mean ± S.E.M. of three determinations
Experimental: as §1, §2, §3
Specific binding of [^3 H]KA (S.A.=60 Ci/mmol, New England Nuclear, Boston, Mass.) was examined according to the method of London and Coyl [(Mol. Pharmacol., 15, 492-505 (1979)] using Tris HCl buffer (pH 7.4). Incubations were conducted for 90 min at 2° C. using a final ligand concentration of 2 nM.
as §4, §5

[4] = test system: pentylenetetrazol (PTZ)-induced seizures; test: Protection against pentylenetetrazol (PTZ)-induced seizures; type: in vivo, male CF-1 mice
Experimental: The anticonvulsant properties of example IV and of the reference compound DL(±)AP7 against seizures induced by subcutaneous (s.c.) injection of pentylenetetrazol (PTZ) were evaluated using mice.
For testing, PTZ was dissolved in saline (0.9%; w/v) and administered to male CF-1 mice (Charles Rivers: 20-25 g) at a dose of 90 mg/kg (s.c.) fifteen minutes (ICV) or thirty minutes (IP) after the administration of the test compounds. Example IV and the reference compound were dissolved in sline and administered in a final volume of 5 μL (ICV) or 200 μL (IP). […] Presence of seizures was defined as one or more episodes of clonic activity having a duration of five seconds or greater. Following preliminary dose-ranging studies, dose-response curves were generated using at least five different doses of each compound with eight animals at each dose. The dose of drug required to protect fifty percent (ED50) of the test animals from PTZ-induced seizures was calculated using log-logit analysis. Ninety-five percent confidence intervals (CL95) were calculated using the method of Litchfield and Wilcoxon [J. Pharmacol. Exp. Therap., 96, 99-113 (1949)].
(§6) Method(s) have been described in the text. Where ED50 's are shown,
(§7) *Where ninetyfive percent confidence limits are not shown, the values

[5] = test system: maximal electroshock (MES)-induced seizures; test: Protection against maximal electroshock (MES)-induced seizures; type: in vivo, male CF-1 mice; settings: for ED50: Mus musculus, 0.5 h, ip, 30 min prior; for ED50 / ED50, maximal electroshock, icv: 50 mA, 0.2 s; for ED50, maximal electroshock, icv: 15 min prior
Experimental: The anticonvulsant properties of example IV and of the reference compound DL(±)AP7 against seizures induced by maximal electroshock (MES) were evaluated using mice.
For testing, electrodes were clipped to the ears of male CF-1 mice (20-25 g; Charles Rivers) and a current of 50 mA was delivered for 0.2 seconds to produce seizures. Drugs were dissolved in saline (0.9%; w/v) and administered fifteen minutes (ICV) or thirty minutes (IP) prior to testing. Injection protocols and group size were identicl to those described in example VI. […] Seizures were scored as being present or absent. Data was calculated as described in example VI.
as §6, §7

[6] = test system: cultured rat hippocampal neurones; settings: cited from earlier work
[7] = icv, 15 min before PTZ 90 mg/kg s.c.
[8] = ">" = maximum dose tested, no animals protected, read-out: ED50, maximal electroshock, ip (mg/kg)
[9] = ">" = maximum dose tested, no animals protected, read-out: ED50, maximal electroshock, ip (mmol/kg)
[10] = ">" = maximum dose tested, no animals protected
[11] = Mus musculus, ip, 30 min before PTZ 90 mg/kg s.c.; ">" = maximum dose tested, no animals protected

| Compound | Inhibition of [3H]AMPA binding, in words [1] | Percent inhibition of specific ligand binding, [3H]AMPA [1] [%] | Inhibition of [3H]CPP binding / interaction with NMDA-type receptors, in words [2] | Percent inhibition of specific ligand binding, [3H]CPP [2] [%] | Percent inhibition of specific ligand binding, [3H]KA [3] [%] | ED50, pentylenetetrazol, icv (nmoles) [4, 7] | ED50, pentylenetetrazol, icv (ug) [4, 7] | ED50, maximal electroshock, icv [5, 10] | other results |
| --- | --- | --- | --- | --- | --- | --- | --- | --- | --- |
| Cc1onc(O)c1CC(N)C(=O)O (racemic) [AMPA, RS-α-amino-3-hydroxy-5-methyl-4-isoxazole propionic acid] | most potent inhibitors of binding | 100 ± 0 | without appreciable activity | 7 ± 4 | 64 ± 4 |  |  |  |  |
| NC(CCCCCP(=O)(O)O)C(=O)O (racemic) [DL(±)AP7] |  |  |  |  |  | 6.8 nmol | 1.37 µg | 6.8 µg and 7.3 µg | ED50 ([4]; Mus musculus; ip, 30 min before PTZ 90 mg/kg s.c.): 780 to 880 µmol/kg; ED50 ([4]; Mus musculus; ip, 30 min before PTZ 90 mg/kg s.c.; ">" = maximum dose tested, no animals protected): 176 to 199 mg/kg; Attenuation of MES-induced seizure activity, in words ([5]; ICV): dose-dependent protection; ED50 [5, 8]: 127 to 170 mg/kg; ED50 [5, 9]: 0.56 to 0.76 mmol/kg; ED50, maximal electroshock, icv [5]: 29 nmol and 34 nmol |
| NC(CCC1CCCCC1CP(=O)(O)O)C(=O)O (stereo not shown) [4-(2-phosphonomethyl)cyclohexyl-2-aminobutyric acid] |  |  | high affinity and selectivity |  |  |  |  |  | Anticonvulsant activity in PTZ seizure model, in words ([4]; mice): provide protection in pentylenetetrazol (PTZ) induced seizures |
| N[C@H](CCCP(=O)(O)O)C(=O)O [D(-)AP5, D(-)-2-amino-5-phosphonopentanoic acid] |  | 3 ± 2 |  | 95 ± 4 | 22 ± 1 |  |  |  |  |
| N[C@H](CCCCCP(=O)(O)O)C(=O)O [D(-)AP7, D(-)-2-amino-7-phosphonoheptanoic acid] |  | 7 ± 5 |  | 100 ± 0 | 17 ± 2 |  |  |  |  |
| NC(CC1CCCCC1CCP(=O)(O)O)C(=O)O (stereo not shown) [Example IV, 2-amino-4.5-(1,2-cyclohexyl)-7-phosphonoheptanoic acid] | without appreciable activity | 1 ± 1 | interacts, albeit with moderate affinity, in a highly specific manner with NMDA-type receptors | 33 ± 9 | 9 ± 4 | 0.14 nmol and 0.19 nmol | 0.04 µg and 0.06 µg | 90 µg | fold more potent than DL(±)AP7 to prevent PTZ-induced seizures, ICV ([4]; ICV, vs DL(±)AP7): 30-40 fold; fold more potent than DL(±)AP7 to prevent PTZ-induced seizures, IP ([4]; IP, vs DL(±)AP7): approximately 2 fold; ED50 ([4]; Mus musculus, ip, 30 min before PTZ 90 mg/kg s.c.): 310 µmol/kg; ED50 [4, 11]: 90 mg/kg; ED50, pentylenetetrazol, ip ([4]; ip, 30 min before PTZ 90 mg/kg s.c.): 0.47 mmol/kg; ED50, pentylenetetrazol, ip ([4]; ip, 30 min before PTZ 90 mg/kg s.c.; ">" = maximum dose tested, no animals protected): 134 mg/kg; Anticonvulsant activity in PTZ seizure model, in words ([4]; mice): potent, novel and systemically active anticonvulsant agent; Anticonvulsant activity in PTZ seizure model, in words ([4]; mice; listed as 3-(2-phosphonoethyl)cyclohexyl-2-aminopropionic acid): provide protection in pentylenetetrazol (PTZ) induced seizures; Inhibition of [3H]CPP binding / interaction with NMDA-type receptors, in words ([2]; listed as 3-(2-phosphonoethyl)cyclohexyl-2-aminopropionic acid): high affinity and selectivity; Attenuation of MES-induced seizure activity, in words ([5]; ICV): moderately potent; also recorded: relative lack of potency; fold less potent as an anticonvulsant in MES compared to its activity in the PTZ seizure model ([5]; ICV, MES vs PTZ): 360 fold; fold less potent than DL(±)AP7 as an anticonvulsant in the MES test ([5]; ICV, vs DL(±)AP7): approximately 11 fold; Prevention of MES-induced seizures on systemic administration ([5]; IP, up to 350 mg/kg, n=6): failed to prevent MES-induced seizures in any animal; ED50 [5, 8]: > 350 mg/kg; ED50 [5, 9]: > 1.2 mmol/kg; ED50, maximal electroshock, icv [5]: 314 nmol; Inhibition of [3H]KA binding, in words ([3]; 50 μM): least active |
| NC(Cc1ccccc1CCP(=O)(O)O)C(=O)O (stereo not shown) [III, 2-Amino-4,5-benzo-7-phosphonoheptanoic acid] |  |  |  |  |  | 44 nmol | 3.2 µg | > 100 µg | ED50 [4, 11]: > 350 mg/kg |
| C=C(C)[C@H]1CN[C@H](C(=O)O)[C@H]1CC(=O)O [KA, kainic acid] | moderate activity | 56 ± 5 | without appreciable activity | 3 ± 2 | 100 ± 0 |  |  |  |  |
| δ-D-glutamyl glycine |  |  |  |  |  |  |  |  | Effect on toxicity of exogenously applied Glu and Asp ([6]; exogenously applied Glu and Asp): blocking the toxicity of exogenously applied Glu and Asp; Protection of neurones from degeneration ([6]; oxygen depletion): protect cultured rat hippocampal neurones from degeneration |
